Experimental data published in patent US20060240127A1, “Use of agomelatine in obtaining medicaments intended for the treatment of bipolar disorders” (priority 2005, published 2006).

Tested on: patients suffering from bipolar disorders of type I
Test: Clinical study of agomelatine in type I bipolar patients treated with lithium or valproate
Assay type: in vivo
Method: This study was carried out in 21 patients suffering from bipolar disorders of type I, treated for at least 6 months with lithium (n =14) or valproate (n=7). Treatment for 6 weeks with agomelatine (25 mg/day) was carried out. Of these patients, 19 continued treatment beyond the 6 weeks of acute treatment, and 11 of those continued treatment up to 1 year.

SMILES: COc1ccc2cccc(CCNC(C)=O)c2c1 [agomelatine, N-[2-(7-methoxy-1-naphthyl)ethyl]acetamide]
- patients in remission at the end of the one year treatment period (11 patients who continued treatment up to 1 year, agomelatine 25 mg/day with lithium or valproate): 10 out of the 11
- manic or hypomanic episodes observed after the 6 weeks of treatment (19 patients who continued beyond 6 weeks, 11 of them up to 1 year, level compatible with a mood stabiliser): three
- patients responded positively to the treatment (21 type I bipolar patients on lithium or valproate, agomelatine 25 mg/day, 6 weeks treatment): 81%
- patients responded positively by the end of one week of treatment (21 type I bipolar patients on lithium or valproate, agomelatine 25 mg/day, end of one week): about 50%
